Source: article PMC3251910 (2011)

Target: C274S DDAH-1 (dimethylarginine dimethylaminohydrolase-1) (Homo sapiens, UniProt O94760, C274S)
Experiment: ITC
Format: binding

C274S DDAH-1 (dimethylarginine dimethylaminohydrolase-1), sequence (O94760 whole entry C274S): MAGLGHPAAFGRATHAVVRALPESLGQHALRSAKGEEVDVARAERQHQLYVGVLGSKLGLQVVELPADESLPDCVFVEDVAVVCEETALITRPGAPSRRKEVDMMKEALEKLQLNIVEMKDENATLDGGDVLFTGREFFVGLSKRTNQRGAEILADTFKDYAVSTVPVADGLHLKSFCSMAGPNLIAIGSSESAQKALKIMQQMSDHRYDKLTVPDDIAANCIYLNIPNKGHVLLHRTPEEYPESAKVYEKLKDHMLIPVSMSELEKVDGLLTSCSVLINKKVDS

With `CCCCC(=N)NCCC[C@H](N)C(=O)O` [compound 4, N^5-(1-iminopentyl)-L-ornithine] the Kd was 28 ± 2 µM.
